Laboratory results: ChEMBL document CHEMBL1142343, “Design and structure-activity relationships of potent and selective inhibitors of undecaprenyl pyrophosphate synthase (UPPS): tetramic, tetronic acids and dihydropyridin-2-ones” (Bioorg Med Chem Lett, 2008)
≈ marks a conversion by molar mass, not a printed value.

Tests used:
Streptococcus pneumoniae = assay: Antibacterial activity against Streptococcus pneumoniae by microdilution broth method; assay type: functional
Enterococcus faecalis = assay: Antibacterial activity against Enterococcus faecalis by microdilution broth method; assay type: functional
Staphylococcus aureus = assay: Antibacterial activity against Staphylococcus aureus by microdilution broth method; assay type: functional
Isoprenyl transferase = target: T1, Isoprenyl transferase (Streptococcus pneumoniae serotype 4 (strain ATCC BAA-334 / TIGR4), UniProt Q97SR4); assay: Inhibition of Streptococcus pneumoniae UPPS
T1 sequence (Q97SR4 whole entry): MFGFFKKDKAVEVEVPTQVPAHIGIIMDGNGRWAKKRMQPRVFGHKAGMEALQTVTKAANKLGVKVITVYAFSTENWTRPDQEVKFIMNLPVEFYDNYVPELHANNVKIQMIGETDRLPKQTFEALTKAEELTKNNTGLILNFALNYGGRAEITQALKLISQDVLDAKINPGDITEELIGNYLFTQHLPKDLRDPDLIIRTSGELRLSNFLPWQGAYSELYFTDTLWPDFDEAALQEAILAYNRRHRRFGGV

[1] = target: T2, Farnesyl pyrophosphate synthase (Homo sapiens, UniProt P14324); assay: Inhibition of human FPPS
T2 sequence (P14324 whole entry): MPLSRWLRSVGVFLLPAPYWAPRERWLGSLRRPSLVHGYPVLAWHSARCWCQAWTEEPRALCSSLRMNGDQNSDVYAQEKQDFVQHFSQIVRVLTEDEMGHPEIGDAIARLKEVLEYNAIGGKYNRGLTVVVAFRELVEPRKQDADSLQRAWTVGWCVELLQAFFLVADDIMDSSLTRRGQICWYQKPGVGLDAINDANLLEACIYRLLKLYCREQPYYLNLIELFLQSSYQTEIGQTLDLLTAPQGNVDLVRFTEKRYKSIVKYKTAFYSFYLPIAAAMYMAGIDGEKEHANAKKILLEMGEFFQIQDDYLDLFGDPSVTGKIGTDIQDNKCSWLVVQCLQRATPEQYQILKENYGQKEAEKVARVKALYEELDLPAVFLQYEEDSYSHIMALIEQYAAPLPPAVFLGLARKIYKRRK

[2] = Dissociation constant, pKa of the compound; assay type: physicochemical

| SMILES | MIC (Streptococcus pneumoniae) | MIC (Enterococcus faecalis) | MIC (Staphylococcus aureus) | IC50 (Isoprenyl transferase) | IC50 [1] | pKa [2] |
| --- | --- | --- | --- | --- | --- | --- |
| O=C(Nc1ccc(C2CCCCC2)cc1)C1=C(O)C(Cc2ccccc2)OC1=O (centres undefined) | 1 µg/mL (≈ 2.55 µM) | 32 µg/mL (≈ 81.7 µM) | 64 µg/mL (≈ 163 µM) | 500 nM | > 50000 nM | – |
| O=C(Nc1ccc(S(=O)(=O)c2ccccc2)cc1)C1=C(O)CC(Cc2ccccc2)NC1=O (centres undefined) | 16 µg/mL (≈ 34.6 µM) | 16 µg/mL (≈ 34.6 µM) | 32 µg/mL (≈ 69.2 µM) | 8500 nM | – | 6.5 |
| O=C(Nc1ccc(Cl)cc1)C1=C(O)C(c2ccccc2)OC1=O (centres undefined) | 64 µg/mL (≈ 194 µM) | > 64 µg/mL | > 64 µg/mL | 24000 nM | > 50000 nM | – |
| O=C(Nc1ccc(Oc2ccccc2)cc1)C1=C(O)CC(Cc2ccccc2)NC1=O (centres undefined) | 32 µg/mL (≈ 77.2 µM) | 64 µg/mL (≈ 154 µM) | 16 µg/mL (≈ 38.6 µM) | 110 nM | > 50000 nM | 6.5 |
| O=C(Nc1ccc(Nc2ccccc2)cc1)C1=C(O)CC(Cc2ccccc2)NC1=O (centres undefined) | – | – | – | 1100 nM | – | 6.5 |
| O=C(Nc1ccc(N2CCCCC2)cc1)C1=C(O)C(CCc2ccccc2)NC1=O (centres undefined) | 4 µg/mL (≈ 9.86 µM) | 8 µg/mL (≈ 19.7 µM) | 4 µg/mL (≈ 9.86 µM) | 800 nM | > 50000 nM | 3 |
| O=C1NCC(CC2CCCCC2)C(O)=C1C(=O)Nc1ccc(-n2ccnc2)cc1 (centres undefined) | 16 µg/mL (≈ 40.6 µM) | 4 µg/mL (≈ 10.1 µM) | 16 µg/mL (≈ 40.6 µM) | 2100 nM | – | – |
| COCC1NC(=O)C(C(=O)Nc2ccc(C3CCCCC3)cc2)=C1O (centres undefined) | – | – | – | > 50000 nM | – | 3 |
| O=C(Nc1ccc(-c2ccccc2)cc1)C1=C(O)C(CCc2ccccc2)NC1=O (centres undefined) | 2 µg/mL (≈ 5.02 µM) | 16 µg/mL (≈ 40.2 µM) | 4 µg/mL (≈ 10 µM) | 120 nM | > 100000 nM | 3 |
| O=C(Nc1ccc(C2CCCCC2)cc1)C1=C(O)CN(Cc2ccccc2)C1=O | – | 1 µg/mL (≈ 2.56 µM) | 0.5 µg/mL (≈ 1.28 µM) | 300 nM | 8000 nM | 3 |
| O=C(Nc1ccc(F)cc1)C1=C(O)C(CCc2ccccc2)NC1=O (centres undefined) | 16 µg/mL (≈ 47 µM) | 64 µg/mL (≈ 188 µM) | 16 µg/mL (≈ 47 µM) | 2500 nM | – | 3 |
| O=C1NCC(Cc2ccccc2)C(O)=C1C(=O)Nc1ccc(-n2ccnc2)cc1 (centres undefined) | 32 µg/mL (≈ 82.4 µM) | 4 µg/mL (≈ 10.3 µM) | 64 µg/mL (≈ 165 µM) | 8800 nM | – | – |
| O=C(Nc1ccc(C2CCCCC2)cc1)C1=C(O)CC(c2ccccc2)NC1=O (centres undefined) | 4 µg/mL (≈ 10.2 µM) | 8 µg/mL (≈ 20.5 µM) | 4 µg/mL (≈ 10.2 µM) | 200 nM | > 50000 nM | 6.5 |
| O=C(Nc1ccc(-c2ccccc2)cc1)C1=C(O)C(Cc2ccccc2)OC1=O (centres undefined) | 4 µg/mL (≈ 10.4 µM) | 32 µg/mL (≈ 83 µM) | > 128 µg/mL | 1100 nM | – | – |
| O=C(NC1CCCCC1)C1=C(O)CC(Cc2ccccc2)NC1=O (centres undefined) | 64 µg/mL (≈ 195 µM) | 64 µg/mL (≈ 195 µM) | 64 µg/mL (≈ 195 µM) | 70 nM | > 50000 nM | 6.5 |
| O=C(Nc1ccc(C2CCCCC2)cc1)C1=C(O)C[C@H](c2ccccc2)NC1=O | 4 µg/mL (≈ 10.2 µM) | 64 µg/mL (≈ 164 µM) | 4 µg/mL (≈ 10.2 µM) | 180 nM | > 50000 nM | 6.5 |

| SMILES | MIC (Streptococcus pneumoniae) | MIC (Enterococcus faecalis) | MIC (Staphylococcus aureus) | IC50 (Isoprenyl transferase) | IC50 [1] | pKa [2] |
| --- | --- | --- | --- | --- | --- | --- |
| O=C(Nc1ccc(C2CCCCC2)cc1)C1=C(O)C[C@@H](c2ccccc2)NC1=O | 4 µg/mL (≈ 10.2 µM) | 64 µg/mL (≈ 164 µM) | 4 µg/mL (≈ 10.2 µM) | 70 nM | > 100000 nM | 6.5 |
| O=C(Nc1ccc(C2CCCCC2)cc1)C1=C(O)C(CCc2ccccc2)NC1=O (centres undefined) | 1 µg/mL (≈ 2.47 µM) | 4 µg/mL (≈ 9.89 µM) | 4 µg/mL (≈ 9.89 µM) | 160 nM | > 100000 nM | 3 |
| CC(C)CC1NC(=O)C(C(=O)Nc2ccc(C3CCCCC3)cc2)=C1O (centres undefined) | 1 µg/mL (≈ 2.81 µM) | 2 µg/mL (≈ 5.61 µM) | 0.5 µg/mL (≈ 1.4 µM) | 1300 nM | > 50000 nM | 3 |
| O=C1NCC(O)=C1C(=O)Nc1ccc(C2CCCCC2)cc1 | – | – | – | 58000 nM | – | 3 |
| O=C(Nc1ccc(C2CCCCC2)cc1)C1=C(O)C(c2ccccc2)NC1=O (centres undefined) | 2 µg/mL (≈ 5.31 µM) | 4 µg/mL (≈ 10.6 µM) | 2 µg/mL (≈ 5.31 µM) | 3500 nM | > 100000 nM | 3 |
| O=C(Nc1ccc(C2CCCCC2)cc1)C1=C(O)CC(Cc2ccccc2)NC1=O (centres undefined) | 8 µg/mL (≈ 19.8 µM) | 64 µg/mL (≈ 158 µM) | 32 µg/mL (≈ 79.1 µM) | 40 nM | > 50000 nM | 6.5 |
| O=C(Nc1ccc(-n2ccnc2)cc1)C1=C(O)CC(Cc2ccccc2)NC1=O (centres undefined) | 32 µg/mL (≈ 82.4 µM) | 32 µg/mL (≈ 82.4 µM) | 32 µg/mL (≈ 82.4 µM) | 630 nM | – | 6.5 |
| CCCCCCOc1ccc(NC(=O)C2=C(O)C(Cc3ccccc3)NC2=O)cc1 (centres undefined) | – | – | – | 19000 nM | – | 3 |
| O=C(Nc1ccc(C(F)(F)F)nc1)C1=C(O)CC(Cc2ccccc2)NC1=O (centres undefined) | 8 µg/mL (≈ 20.4 µM) | 16 µg/mL (≈ 40.9 µM) | 16 µg/mL (≈ 40.9 µM) | 140 nM | > 50000 nM | 6.5 |
| O=C(Nc1ccc(N2CCCCC2)cc1)C1=C(O)CC(Cc2ccccc2)NC1=O (centres undefined) | 64 µg/mL (≈ 158 µM) | 64 µg/mL (≈ 158 µM) | 64 µg/mL (≈ 158 µM) | 110 nM | > 50000 nM | 6.5 |
| O=C(NC1CCCCC1)C1=C(O)C(CCc2ccccc2)NC1=O (centres undefined) | 64 µg/mL (≈ 195 µM) | 32 µg/mL (≈ 97.4 µM) | 32 µg/mL (≈ 97.4 µM) | 35000 nM | – | 3 |
| O=C(Nc1ccc(C2CCCCC2)cc1)C1=C(O)C(Cc2ccccc2)NC1=O (centres undefined) | 1 µg/mL (≈ 2.56 µM) | 8 µg/mL (≈ 20.5 µM) | 0.5 µg/mL (≈ 1.28 µM) | 1800 nM | > 100000 nM | 3 |
| CC(C)CC1CC(O)=C(C(=O)Nc2ccc(C3CCCCC3)cc2)C(=O)N1 (centres undefined) | 4 µg/mL (≈ 10.8 µM) | 64 µg/mL (≈ 173 µM) | > 64 µg/mL | 200 nM | – | 6.5 |
| O=C(Nc1ccc(C2CCCCC2)cc1)C1=C(O)CC(C2CCCCC2)NC1=O (centres undefined) | > 32 µg/mL | 32 µg/mL (≈ 80.7 µM) | > 32 µg/mL | 60 nM | – | 6.5 |
| O=C(Nc1cc(Cl)cc(Cl)c1)C1=C(O)C(c2ccccc2)OC1=O (centres undefined) | 4 µg/mL (≈ 11 µM) | 32 µg/mL (≈ 87.9 µM) | 32 µg/mL (≈ 87.9 µM) | 2000 nM | > 50000 nM | – |
| O=C(Nc1ccc(C2CCCCC2)cc1)C1=C(O)C(Cc2ncc[nH]2)NC1=O (centres undefined) | 8 µg/mL (≈ 21 µM) | 16 µg/mL (≈ 42.1 µM) | 16 µg/mL (≈ 42.1 µM) | 4200 nM | – | 3 |
